These are literature values, as cited in US4960596A (Ethypharm, priority 1987, dated 1990).

Where a name gives a salt, the structure may show the parent alone.

One series deals with sodium-potassium pump. The settings on record: smooth muscle cells and other types of cell.
For series [1] the following is noted: literature.
The subject of series [2] is special channels to be found in the membranes of a variety of cells (calcium).

As to `COc1ccc(C2Sc3ccccc3N(CCN(C)C)C(=O)C2OC(C)=O)cc1` (stereo not drawn) [Diltiazem, Diltiazem hydrochloride], in the series with heart muscle, the “heart pacemaker activity and auriculo-ventricular node conduction” value was “depressive effective on heart pacemaker activity and on auriculo-ventricular node conduction resulting in a negative chronotropic effect”; the inotropic effect result was “weak negative inotropic effect on the heart muscle”. In addition, in the series on smooth muscle, the “effect on smooth muscle” value is listed as “vasodilatation of smooth muscle”. Moreover, the intra-cellular sodium result in the series with sodium-potassium pump is listed as “reduces intra-cellular sodium by stimulating the sodium-potassium pump”. For the same molecule, the half life entry in series [1] is recorded as “four hours to seven hours”. Moreover, the calcium inflow result in series [2] was “inhibit the inflow of calcium”.
